# In patent US20200172975A1, “Cell-Free microRNA Signatures of Pancreatic Islet Beta Cell Death” (THE UNIVERSITY OF SYDNEY, priority 2017, published 2020):
# Tested on: new-onset T1D individuals
# Assay: Clinical study of ingested interferon-α: residual C-peptide and microRNA signature of beta cell death
# Format: in vivo, human
# Text: In order to assess whether microRNAs could predict treatment efficacy, microRNAs were profiled from a de-identified clinical study set of samples from new-onset T1D individuals. These individuals received oral interferon-α at two doses as a therapy to preserve beta cell mass. The effect of ingested interferon-α on residual C-peptide (a measure of beta cell mass) at one year following treatment with 5000 units, 30,000 units or placebo was investigated.
# Treatment groups are shown on the X-axis. The remaining beta-cell function measured as circulating C-peptide levels at 1 year (relative to baseline) are plotted on Y-axis (adjusted means, vertical bars denote 0.95 confidence intervals).
substance,measurement,setting,value
interferon-α,remaining beta-cell function measured as circulating C-peptide levels at 1 year (relative to baseline),"30,000 units ingested IFN treatment group as compared to the Control group, FIG. 13",significant preservation of islet beta cell mass
same,miRNA signature of beta cell death (abundance),"30,000 units ingested IFN treatment group, 12 months from study baseline",lower abundance
same,microRNA signature of beta cell death,"individuals showing the highest preservation of beta-cell mass at one year of treatment, FIG. 14",decreased
